pIC50: −log10 of the molar value.
Experiments:
[1] = molecular target: T1, human CD38 enzyme in primary human CD4+ T cells (Homo sapiens, UniProt P28907); test: NAD+ hydrolase activity assay in primary human activated CD4+ T cells (Assay 7); type: cell-based; details: primary human CD4+ T cells activated with anti-CD3/CD28
T1 construct: whole primary human CD4+ T cells (from healthy donors); endogenous in cells
T1 sequence (P28907 1-300): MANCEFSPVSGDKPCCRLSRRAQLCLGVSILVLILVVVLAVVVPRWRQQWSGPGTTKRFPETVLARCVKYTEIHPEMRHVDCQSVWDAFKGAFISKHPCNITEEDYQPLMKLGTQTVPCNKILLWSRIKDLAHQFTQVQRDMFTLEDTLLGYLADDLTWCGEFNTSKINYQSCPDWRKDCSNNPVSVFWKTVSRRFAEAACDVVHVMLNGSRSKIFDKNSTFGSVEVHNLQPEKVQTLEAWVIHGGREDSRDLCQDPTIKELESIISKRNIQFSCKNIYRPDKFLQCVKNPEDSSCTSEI
Protocol: The in vitro potency of Compound 35 against the human CD38 enzyme was determined by a fluorescence-based NAD+ hydrolase activity assay using the NAD+ analog nicotinamide 1,N^6-etheno-adenine dinucleotide (εNAD+) as substrate. The assay utilized: 1) whole primary human CD4+ T cells (from healthy donors) activated with anti-CD3/CD28 antibodies and expressing human CD38; or II) whole primary human macrophages (from healthy donors) stimulated with LPS to polarize in a pro-inflammatory M1 state expressing human CD38. The cells were incubated in the presence of 8 different concentrations of Compound 35 for 10 minutes and the reaction was started adding the substrate εNAD+. The emission of fluorescence was measured at 410-20 nm at 37° C. every minute for 1 hr. The NAD+ hydrolase activity was calculated as the slope of the linear portion of the fluorescence-time curve and used to calculate the IC50 value.

[2] = test system: human liver microtissues (hepatocytes, Kupffer cells, endothelial and stellate cells) in NASH induction media; test: Human 3D NASH model (InSphero Human 3D InSight), release of inflammatory markers; type: cell-based; details: supernatant, day 5
Protocol: The efficacy of Compound 35 was also determined in a NASH model (see InSphero Human 3D InSight™ Brunswick, ME) to investigate the effect of the molecule on the pathophysiological phenotype of NASH such as release of inflammatory markers. The microtissue model used is a co-culture of 4 different cell types of human liver cells (hepatocytes, Kupffer cells, endothelial and stellate cells) cultured for 10 days in a NASH induction media containing FFA, LPS and high levels of sugars. In the LEAN group the microtissues were cultured for 10 days in physiological-like medium. The reference compound, Selonsertib, a selective ASK1 inhibitor, was used as a down regulator of inflammatory markers. Cytokine and chemokine release in the supernatant were measured at day 5 using Magnetic Luminex® Assay (R&D Systems).

[3] = molecular target: T2, recombinant rat CD38 Protein (Rattus norvegicus, UniProt Q64244); test: Fluorescence-based NAD+ hydrolase activity assay with rat recombinant CD38 protein (Assay 6); type: biochemical; details: read-out: Assay 6 Arithmetic mean IC50
T2 construct: purchased Sino Biological
T2 sequence (Q64244 1-303): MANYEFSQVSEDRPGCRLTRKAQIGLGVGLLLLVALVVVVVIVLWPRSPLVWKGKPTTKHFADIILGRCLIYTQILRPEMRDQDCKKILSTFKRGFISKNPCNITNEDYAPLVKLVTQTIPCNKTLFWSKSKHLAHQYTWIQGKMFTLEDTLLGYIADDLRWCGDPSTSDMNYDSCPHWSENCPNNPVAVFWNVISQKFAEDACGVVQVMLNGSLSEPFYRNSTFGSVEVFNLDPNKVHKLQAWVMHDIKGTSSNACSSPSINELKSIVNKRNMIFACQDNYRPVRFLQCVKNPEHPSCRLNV
Protocol: This protocol was modified from the following references: Muller et al. (1983); Schultz et al. (2018); Matalonga et al. (2017); and de Oliveira et al. (2018), supra.
NAD+ hydrolase activity of the rat recombinant CD38 protein treated with test compounds was measured using a fluorescence-based assay. Briefly, recombinant rat CD38 Protein (Sino Biological) was resuspended in 44 μl/well of Sucrose-Tris Buffer (Sucrose 0.25 M, Tris pH 7.4 40 mM) and plated in a 96 well black plate (CORNING) at a density of 2.5 ng/well.
Each test compound was received in a powder state and dissolved in DMSO as a 25 mM stock solution. Each test compound was serially diluted in order to generate a dose-response curve. […]
The reaction was started adding nicotinamide 1,N^6-etheno-adenine dinucleotide (Sigma Aldrich) to reach a final concentration of 80 µM. The samples were excited at 321-15 nm and the emission of fluorescence was measured at 410-20 nm at 37° C. every minute for 1 hr in a Clariostar Microplate® reader (BMG LABTECH). NAD+ hydrolase activity was calculated as the slope of the linear portion of the fluorescence-time curve using the MARS data analysis software (BMG LABTECH). The data were uploaded in the Collaborative Drug Design (CDD) Software and for each compound the IC50 was calculated by the software. […] For each plate, the z-factor was also calculated as a plate quality using the CDD software.

Row | SMILES | pIC50 [1] | release of NASH-induced inflammatory marker IL-8 [2] | release of NASH-induced inflammatory marker IP-10/CXCL-10 [2] | release of NASH-induced inflammatory marker MIP-1α/CCL3 [2] | release of NASH-induced inflammatory marker TNFα [2] | pIC50 [3]
1 | COc1cc(C(=O)Nc2ccnc(C(F)(F)F)c2)nc(-n2ccnc2)c1 [Compound 35, 6-(1H-imidazol-1-yl)-4-methoxy-N-(2-(trifluoromethyl)pyridin-4-yl)picolinamide] | 9.75 | effectiveness in downregulating | effectiveness in downregulating | effectiveness in downregulating | effectiveness in downregulating | 
2 | COCCOc1cc(C(=O)Nc2ccnc(C(F)(F)F)c2)nc(-n2ccnc2)n1 [Compound 39, 2-(1H-imidazol-1-yl)-6-(2-methoxyethoxy)-N-(2-(trifluoromethyl)pyridin-4-yl)pyrimidine-4-carboxamide] |  |  |  |  |  | 7.30 to 9.00
